Several values for one entry are separate records, joined by “and”; a condition that tells them apart may be missing. Equal entries are not always repeated. Where two headings read alike, the source gives them in different places.
Columns and labels:
DENV2 = format: cell-based
in vitro [1] = conditions: African green monkey
[2] = tested on: SARS-CoV-2 (USA-WA1/2020); experiment: microbe, parasite or virus in culture; format: cell-based; conditions: for EC50: Severe acute respiratory syndrome coronavirus 2, Vero, 24 h, read-out: SARS-CoV-2 EC50
VEEV (TC-83) = format: cell-based
in vitro [3] = conditions: human, Huh7 cell viability (%)
[4] = tested on: SARS-CoV-2 (Belgium-GHB-03021); format: cell-based
Huh7 cells = conditions: human
in vitro [5] = conditions: human, U-87 MG cell viability (%)
U-87 MG cells = conditions: human

Row | SMILES | replication of DENV2 (DENV2) | CC50 (in vitro [1]) | EC50 [2] | replication of TC-83 (VEEV (TC-83)) | viability at 0.37 µM (in vitro [3]) | viability at 3.33 µM (in vitro [3]) | viability at 10 µM (in vitro [3]) | viability at […] (in vitro [3]) | also measured
1 | [N-]=[N+]=CC(=O)OC[C@H](N)C(=O)O [Azaserine] | dose-dependently inhibited replication | > 20 µM | 0.7 µM | dose-dependently inhibited replication | 114% | 69.5% | 60.6% | 107% | 
2 | CNc1ccc2oc(C[C@H]3O[C@@]4(CC[C@H]3C)O[C@H]([C@H](C)C(=O)c3ccc[nH]3)[C@H](C)C[C@H]4C)nc2c1C(=O)O [Calcimycin] | dose-dependently inhibited replication | > 20 µM | 0.6 µM | dose-dependently inhibited replication | 98% | 50.5% | 23.5% | 77.7% and 102% | 
3 | O=C1NCN(c2ccccc2)C12CCN(CCCC(c1ccc(F)cc1)c1ccc(F)cc1)CC2 [Fluspirilene] |  | > 20 µM | 15.2 µM |  | 93.4% | 87.3% | 70.9% | 93.9% and 95.5% | anti-TC-83 and DENV2 activity compared with anti-SARS-CoV-2 activity (VEEV (TC-83)): more potent
4 | N#C[C@@]1(c2ccc3c(N)ncnn23)O[C@H](CO)[C@@H](O)[C@H]1O [GS-441524] |  |  |  |  |  |  |  |  | rescue of Vero-eGFP cells from SARS-CoV-2-induced lethality, dose response [4]: dose-dependent anti-SARS-CoV-2 activity
5 | CC(=O)O[C@@H]1C[C@H]2C(C)(C)C(=O)C=C[C@]2(C)[C@H]2CC[C@@]3(C)[C@H](c4ccoc4)OC(=O)[C@H]4O[C@]43[C@@]21C [Gedunin] | dose-dependently inhibited replication | > 20 µM | 1.4 µM | dose-dependently inhibited replication | 97.4% |  | 85% |  | Huh7 cell viability (%) (Huh7 cells; 0.37 µM): 96.29%; Cell viability (%) (Vero cells; 0.625 μM): 106.58% and 104.74%; Cell viability (%) (Vero cells; 1.25 μM): 98.66%; Cell viability (%) (Vero cells; 5 μM): 83.37% and 75.82%; Cell viability (%) (Vero cells; 20 μM): 88.12% and 85.24%; viability at 0.625 µM (in vitro [1]; Cell viability (%), 0.625 μM): 107%; viability at 1.25 µM (in vitro [1]; Cell viability (%), 1.25 μM): 105%; viability at 5 µM (in vitro [1]; Cell viability (%)): 82.9%; viability at 20 µM (in vitro [1]; Cell viability (%)): 86.5%; SARS-CoV-2 infection (%) ([2]; 0.625 μM): 97.75% and 70.79% and 84.27%; SARS-CoV-2 infection (%) ([2]; 1.25 μM): 57.30% and 67.42% and 50.56%; SARS-CoV-2 infection (%) ([2]; 5 μM): 0.67% and 1.04% and 1.31%; SARS-CoV-2 infection (%) ([2]; 20 μM): 0.00337%; viability at 0.37 µM (in vitro [5]): 81.9%; viability at 3.33 µM (in vitro [5]): 79.5%; viability at 10 µM (in vitro [5]): 75.7%; viability at […] (in vitro [5]): 79.1% and 86.8%; viability at 0.123 µM (in vitro [3]): 97.1%; viability at 1.111 µM (in vitro [3]): 96.9%; viability at 3.333 µM (in vitro [3]): 94.3%
6 | CS(=O)(=O)CCNCc1ccc(-c2ccc3ncnc(Nc4ccc(OCc5cccc(F)c5)c(Cl)c4)c3c2)o1 [Lapati-nib] |  |  |  |  |  |  |  |  | U-87 MG cell viability (%) (U-87 MG cells; 0.37 µM): 129.28%; viability at 20 µM (in vitro [1]; Cell viability (%)): 67%; SARS-CoV-2 infection (%) ([2]; 0.25 μM): 46.09% and 52.84% and 47.65%; SARS-CoV-2 infection (%) ([2]; 0.74 μM): 18.11% and 21.05% and 22.00% and 22.88% and 28.58%; SARS-CoV-2 infection (%) ([2]; 2.22 μM): 20.01% and 16.81% and 28.24% and 14.29% and 20.00%
7 | O[C@H]1[C@H]2c3cc4c(cc3CN3CCC(=C[C@@H]1O)[C@H]23)OCO4 [Lycorine] | dose-dependently inhibited replication | > 20 µM | 0.5 µM | dose-dependently inhibited replication | 93.2% | 68.1% | 66.6% | 82.9% and 95% | viability at 0.37 µM (in vitro [5]): 92.9%; viability at 3.33 µM (in vitro [5]): 67.1%; viability at 10 µM (in vitro [5]): 61.2%; viability at […] (in vitro [5]): 81.7% and 97.3%
8 | COc1c(O)cc2oc3cc(O)c(CC=C(C)C)c(O)c3c(=O)c2c1CC=C(C)C [Mangostin, 9H-Xanthen-9-one, 1,3,6-trihydroxy-7-methoxy-2,8-bis (3-methyl-2-butenyl)-] |  |  |  |  |  |  |  |  | Fluorescence (%area) [4]: 102.5 %area
9 | CC[C@@]1([C@@H]2O[C@@H]([C@H]3O[C@@](O)(CO)[C@H](C)C[C@@H]3C)C[C@@H]2C)CC[C@H]([C@]2(C)CC[C@]3(C[C@H](O)[C@@H](C)[C@@H]([C@@H](C)[C@@H](OC)[C@H](C)C(=O)O)O3)O2)O1 [Monensin] | dose-dependently inhibited replication | > 20 µM | 1.2 µM | dose-dependently inhibited replication | 70.5% | 32.2% | 22.1% | 47.9% and 83.7% | 
10 | CCC(CC)COC(=O)[C@H](C)N[P@](=O)(OC[C@H]1O[C@@](C#N)(c2ccc3c(N)ncnn23)[C@H](O)[C@@H]1O)Oc1ccccc1 [Remdesivir] |  |  |  |  |  |  |  |  | rescue of Vero-eGFP cells from SARS-CoV-2-induced lethality, dose response [4]: dose-dependent anti-SARS-CoV-2 activity
11 | CC(C)(C)NCC(O)c1ccc(O)c(CO)c1 (stereo not shown) [Salbutamol] | minimal to no activity | > 20 µM | > 20 µM | minimal to no activity |  |  |  |  | activity against SARS-CoV-2 [2]: minimal to no activity
12 | CCN(CC)CCNC(=O)c1c(C)[nH]c(/C=C2\C(=O)Nc3ccc(F)cc32)c1C [Sunitinib] |  | 12.2 µM | 2.4 µM |  |  |  | 59% |  | Huh7 cell viability (%) (Huh7 cells; 1.25 µM): 90.21%; Huh7 cell viability (%) (Huh7 cells; 2.5 µM): 75.37%; U-87 MG cell viability (%) (U-87 MG cells; 5 µM): 106.81%; viability at 2.5 µM (in vitro [1]; Cell viability (%), 2.5 μM): 68.8%; viability at 5 µM (in vitro [1]; Cell viability (%)): 66.1%; SARS-CoV-2 infection (%) ([2]; 0.5 μM): 94.03% and 125.37% and 116.42%; SARS-CoV-2 infection (%) ([2]; 1 μM): 116.42% and 85.07% and 94.03%; SARS-CoV-2 infection (%) ([2]; 5 μM): 16.57% and 14.33% and 15.67%; viability at 0.25 µM (in vitro [5]): 118%; viability at 0.74 µM (in vitro [5]): 110%; viability at 2.5 µM (in vitro [5]): 106%; viability at 20 µM (in vitro [5]): 44.6%; viability at 0.16 µM (in vitro [3]): 102%; viability at 0.63 µM (in vitro [3]): 99.8%; viability at 1.25 µM (in vitro [3]): 89.5%
13 | COc1ccc2cc1Oc1ccc(cc1)C[C@H]1c3cc(c(OC)cc3CCN1C)Oc1c(OC)c(OC)cc3c1[C@H](C2)N(C)CC3 [Tetrandrine, Berbaman, 6,6',7, 12-tetramethoxy-2,2'-dimethyl-, (1β)-] |  | > 20 µM | 1.4 µM |  |  | 93.9% | 44% | 96.8% and 97% | Fluorescence (%area) [4]: 93.6 %area
14 | CC(C)(C)c1cc(C=C(C#N)C#N)cc(C(C)(C)C)c1O [Tyrphostin A9] |  | > 20 µM | 16.5 µM |  | 101% | 89.2% | 88% | 90.8% and 98.7% | anti-TC-83 and DENV2 activity compared with anti-SARS-CoV-2 activity (VEEV (TC-83)): more potent; viability at 0.25 µM (in vitro [5]): 96.7%; viability at 0.74 µM (in vitro [5]): 85%; viability at 2.22 µM (in vitro [5]): 85.2%; viability at 6.67 µM (in vitro [5]): 78.3%; viability at 20 µM (in vitro [5]): 70.1%
15 | CC(C)(C)c1cc(/C=C(\C#N)C(N)=S)cc(C(C)(C)C)c1O [Tyrphostin AG 879] | dose-dependently inhibited replication | > 20 µM | 0.6 µM | dose-dependently inhibited replication | 100% | 98.8% | 95.1% | 102% and 98.9% | 
16 | CC[C@@H](C(=O)[C@@H](C)[C@@H](O)[C@H](C)[C@@H]1O[C@@H]([C@@H](CC)C(=O)O)CC[C@@H]1C)[C@H]1O[C@]2(C=C[C@@H](O)[C@]3(CC[C@@](C)([C@H]4CC[C@](O)(CC)[C@H](C)O4)O3)O2)[C@H](C)C[C@@H]1C [salinomycin] |  |  |  |  |  |  |  |  | Fluorescence (%area) [4]: greater than 15

— article PMC10541190 (The Journal of Clinical Investigation, 2023)
